Measurements: patent US12070458B2, “Therapeutic agent composition and method of use, for treatment of mild congnitive impairment, depression, and psychological disorders” (priority 2018, dated 2024)
Residues, ends and D or L forms follow the SMILES beside them.

Experiments:
[1] = system: damaged nerve tissue (crushed spinal cord); test: Regeneration of damaged nerve tissue after crushing the spinal cord; format: in vivo, Wistar rats; conditions: 10 mM in saline, 0.75 ml four times a day at the site of injury for 14 days, versus saline
Experimental: Postnatal day 4 Wistar 10 rats were used for the study. The rats were divided in 2 groups: one group of 5 animals treated with drug solution, and the other group of animals treated with 0.9% sodium chloride (saline) solution. A drug solution containing cPG (from Bachem, 10 mM solution prepared in 0.9% sodium chloride (saline) solution) was administered four times a day in volumes of 0.75 ml to thoroughly flood the site of injury.
Two days after crushing the spinal cord, the dura of a rat was opened and a polyethylene tube was sutured to the vertebral spines and adjacent soft tissues so that the opening in one end lay directly over the injured part of the spinal cord. The tubing was brought through a subcutaneous tunnel so that its other end emerged at the base of the skull. A syringe adapter was attached to the external opening for injecting the drugs. All experiments were on a double-blind basis on 2 groups: one group of 5 animals treated with drug solution of 10 mM in saline solution, and the other group of 5 animals treated with 0.9% sodium chloride (saline) solution. Treatment of every animal was continued for 14 days, after which the animals were killed and histological sections prepared.
Postnatal day 4 Wistar 10 rats were used for the study. […]

[2] = system: 6-OHDA induced nigral-striatal lesion; test: 6-OHDA induced nigral-striatal lesion, apomorphine-induced contralateral rotations; format: in vivo, Wistar rats; conditions: 1 mg (mg/kg) i.p. 2 hours post lesion; 7 days post-lesion, apomorphine 0.1 mg/kg; n=5; vehicle 290±18 or 292±21
Experimental: Twenty male Wistar rats (280-310 g) were used. After exposing the skull, 6-OHDA (8 μg in a base of 2 μl 0.9% saline containing 1% ascorbic acid) was administered into the right medial forebrain bundle (MFB) using co-ordinates AP +4.7 mm, R 1.6 mmv −8 mm under 3% halothane anaesthesia. 6-OHDA was injected through a 25G needle connected via a polyethylene catheter to a 100 μl Hamilton syringe. The 6-OHDA was infused by a microdialysis infusion pump at a rate of 0.5 μl/min. The needle was left in the brain for a further 3 minutes before being slowly withdrawn. The skin was sutured with 2.0 silk and the rats were allowed to recover from anaesthesia. The rats were housed in a holding room with free access to food and water at all times except during behavioural testing.
Cyclic PG was dissolved in saline. Four different doses of cPG (0, 0.1, 0.5, 1 mg/kg, Bachem) were administered intraperitoneally 2 hours post lesion.
At 7 days post-lesion, rats were injected with 0.1 mg/kg apomorphine and the number of contralateral rotations/hour was recorded and calculated using a computerised Rotameter (St Diego Instruments). Experimenter was blinded from the treatment groups.
Cyclic(tri(prolylglycyl)) was dissolved in saline solution. Four different doses of Cyclic(tri(prolylglycyl)) (0, 0.1, 0.5, 1 mg/kg, NeuroBiomed) were administered intraperitoneally 2 hours post lesion.
Cyclic Glycyl-2-Methyl Proline (cGMeP) was dissolved in saline solution. Four different doses of cGMeP (0, 0.1, 0.5, 1 mg/kg, NeuroBiomed) were administered intraperitoneally 2 hours post lesion.

Structure (SMILES)	nerve growth into the lesion site (histology) [1]	number of contralateral rotations/hour [2] [rotations/hour]
O=C1NCC(=O)N2CCC[C@H]2C(=O)NCC(=O)N2CCC[C@H]2C(=O)NCC(=O)N2CCCC12 (stereo partly drawn) [c(PG)3, cyclic (glycyl-L-prolylglycyl-L-prolylglycyl-L-prolyl)] (HELM PEPTIDE1{G.P.G.P.G.[O=C(C1CCCN1[*:1])[*:2]]}$PEPTIDE1,PEPTIDE1,1:R1-6:R2$$$V2.0)	prolific nerve growth	172±69
O=C1NCC(=O)N2CCC[C@@H]12 [cPG, cyclic Prolyl Glycine]	most prolific nerve growth	154±64
